The term EC50 denotes the concentration that produces a half-maximal response.

The target in experiment [1] is T1, GPR30 (Rattus norvegicus, UniProt O08878).
T1 construct: gene Gper1

Experiment [2] has as its target T2, GPR30 (Homo sapiens, UniProt Q99527).
T2 construct: gene GPER1; hGPR30-HA (C-terminal HA tag), plasma membrane fraction of HEK293 cells
In words: scintillation proximity assay with […]C-bicarbonate on membranes; the EC50 is from inositol phosphate accumulation in HEK293 cells. The experiment is classed as cell-based. Background: In a scintillation proximity assay essentially only radioactivity close to the scintillant gives light.

Experiment [3] addresses T3, GPR30 (Mus musculus, UniProt Q8BMP4).
T3 construct: gene Gper1; mGPR30 stably expressed in MCF-7 cells
T3 sequence (Q8BMP4 1-375): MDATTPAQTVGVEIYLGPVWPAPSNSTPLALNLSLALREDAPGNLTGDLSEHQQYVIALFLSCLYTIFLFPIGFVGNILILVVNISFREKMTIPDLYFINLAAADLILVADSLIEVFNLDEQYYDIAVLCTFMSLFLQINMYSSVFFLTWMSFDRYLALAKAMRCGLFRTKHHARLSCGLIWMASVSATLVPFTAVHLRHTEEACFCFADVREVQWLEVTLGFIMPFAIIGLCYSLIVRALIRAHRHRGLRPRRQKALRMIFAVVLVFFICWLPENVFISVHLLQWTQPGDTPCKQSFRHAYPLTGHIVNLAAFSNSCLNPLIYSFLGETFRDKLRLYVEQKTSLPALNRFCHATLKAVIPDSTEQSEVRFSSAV
The experiment in a line: inositol phosphate accumulation in MCF-mGPR30 cells; calcium responses lost in Gpr30-null mural cells. The experiment is classed as cell-based.

The target of experiment [4] is T4, GPR30 (Danio rerio, UniProt B3G515).
T4 construct: gene gper1
T4 sequence (B3G515 whole entry): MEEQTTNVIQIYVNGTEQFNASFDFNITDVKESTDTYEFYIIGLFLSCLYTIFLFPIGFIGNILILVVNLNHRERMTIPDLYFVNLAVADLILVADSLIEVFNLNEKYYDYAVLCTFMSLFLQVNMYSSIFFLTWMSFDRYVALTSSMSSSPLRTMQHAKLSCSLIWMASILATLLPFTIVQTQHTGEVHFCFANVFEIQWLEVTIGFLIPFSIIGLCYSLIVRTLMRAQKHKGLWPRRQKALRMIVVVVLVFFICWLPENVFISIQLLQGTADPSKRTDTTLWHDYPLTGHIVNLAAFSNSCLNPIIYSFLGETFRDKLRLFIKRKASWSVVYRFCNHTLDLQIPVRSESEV

T1 sequence (O08878 whole entry): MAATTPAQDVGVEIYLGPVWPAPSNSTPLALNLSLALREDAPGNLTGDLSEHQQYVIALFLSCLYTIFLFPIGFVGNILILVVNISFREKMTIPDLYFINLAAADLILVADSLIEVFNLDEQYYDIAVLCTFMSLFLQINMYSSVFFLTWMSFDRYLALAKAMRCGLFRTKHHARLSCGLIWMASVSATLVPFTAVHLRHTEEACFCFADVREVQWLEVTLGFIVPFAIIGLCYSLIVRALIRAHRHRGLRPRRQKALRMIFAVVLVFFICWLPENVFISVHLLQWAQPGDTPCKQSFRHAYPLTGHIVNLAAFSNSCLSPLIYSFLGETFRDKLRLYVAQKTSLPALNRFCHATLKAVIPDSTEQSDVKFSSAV
T2 sequence (Q99527 whole entry): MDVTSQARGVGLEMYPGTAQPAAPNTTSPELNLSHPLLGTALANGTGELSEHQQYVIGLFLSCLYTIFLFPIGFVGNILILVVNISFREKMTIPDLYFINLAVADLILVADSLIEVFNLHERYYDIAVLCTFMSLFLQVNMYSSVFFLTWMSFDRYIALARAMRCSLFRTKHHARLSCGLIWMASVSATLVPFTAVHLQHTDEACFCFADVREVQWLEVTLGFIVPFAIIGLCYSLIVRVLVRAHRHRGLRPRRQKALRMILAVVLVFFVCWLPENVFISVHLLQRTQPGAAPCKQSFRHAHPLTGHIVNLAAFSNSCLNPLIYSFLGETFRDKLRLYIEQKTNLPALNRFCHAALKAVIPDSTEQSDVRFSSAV

For the compound `O=C(O)O` [bicarbonate], the “cell-based activation assay of expressed receptor” value in experiment [1] is reported as “Activation of GPR30 by bicarbonate ions was conserved among various species, including rats”; in experiment [4] it was “Activation of GPR30 by bicarbonate ions was conserved among various species, including rats”. The EC50 in experiment [2] amounted to 11.4 mM; in experiment [3], 12.2 mM.

The values are drawn from publication PMC10899177, “Bicarbonate signalling via G protein-coupled receptor regulates ischaemia-reperfusion injury” (Nature Communications, 2024).
